Target: T1, Gag-Pol polyprotein [489-587] (Human immunodeficiency virus 1, UniProt P04585)
T1 construct: 489-587
Assay: Inhibitory concentration against human immunodeficiency virus-1 protease; (Dimerization inhibitor)

Q: `CC[C@@H](C)[C@H](NC(=O)[C@H](CCC(N)=O)NC(=O)C1CCCN1C(=O)CCCCCCCCCCCCCCC(=O)N[C@@H](CO)C(=O)N[C@H](C(=O)N[C@@H](CC(C)C)C(=O)N[C@@H](CC(N)=O)C(=O)N[C@@H](Cc1ccccc1)C(=O)O)[C@H](C)O)C(=O)N[C@H](C(=O)N[C@@H](CC(C)C)C(=O)N[C@@H](Cc1c[nH]c2ccccc12)C(=O)O)[C@H](C)O` (some centres not stated) was tested. Which IC50 did it give?
A: 350 nM

Q: And the Ki?
A: 220 nM

From BindingDB's records for doi:10.1021/jm049581j (Purdue University, 2005)
